Experiments:
[1] = tested on: HT29/Colon Carcinoma; experiment: Antitumor activity in athymic mice transplanted s.c. with HT29 Colon Carcinoma; assay type: in vivo, athymic Swiss/nu/ mice; settings: for % tumor inhib. / TOX (number of toxic deaths/total number of mice) / cured mice (tumor free mice 90 days after tumor implant): 7.5 mg/kg (CPT equivalent), iv q4dx6
Procedure: (§1) Camptothecin (CPT) was dissolved in sterile water with 10% tween.
(§2) Treatment was administered i.v. in a volume of 10 ml/kg of body weight and control mice were treated with sterile water.
HT29 Colon Carcinoma was transplanted s.c. in athymic Swiss/nu/ mice using 15-20 mg of tumor brei.
(§3) All animals were from Charles River Calco, Como, Italy.
(§4) Ten mice/group for conventional and eight for athymic mice were used.
(§5) The mouse colony was routinely tested for the absence of antibodies to a panel of pathogens including Mouse Hepatitis, Sendai Virus and Mycoplasma Pulmonis.
(§6) Tumor growth was assesed by caliper measurement and the tumor weight estimated according to Geran et al. (see: Cancer Chem.Rep., Part 3, 3 (2) ed. 3, pp 1-103, 1972). The antitumor activity is expressed as percentage of inhibition of tumor growth (%T/I) using the following formula: [formula] The median increase in survival time (T/C%) was calculated using the following formula: [formula]
Cured mice are mice without tumor at the end of the experiment.
(§7) Toxicity was evaluated on the basis of the body weight reduction and gross autopsy findings, mainly in terms of reduction of spleen and liver size.

[2] = tested on: early M5076 murine reticulosarcoma; experiment: Antitumor activity against early M5076 murine reticulosarcoma; assay type: in vivo, C57Bl/6 mice; settings: 7.5 mg/kg (CPT equivalent); for % tumor inhib.: estimated one week after the last treatment
Procedure: Camptothecin (CPT) was dissolved in sterile water with 10% tween. […]
(§8) M5076 muine reticulosarcoma was maintained by serial i.m. passages and transplanted s.c. (5×10^5 cells/mouse) in compatible C57Bl/6 mice.
as §3, §4
(§9) The conventional mice weighed 20 to 22 g and were kept under standard laboratory conditions.
as §5, §6, §7

[3] = tested on: advanced M5076 murine reticulosarcoma; experiment: Antitumor activity against advanced M5076 murine reticulosarcoma; assay type: in vivo, C57Bl/6 mice; settings: iv on day 16,20,24,28,31,35; for % tumor inhibition: estimated at day 34
Procedure: as §1, §2, §8, §3, §4, §9, §5, §6, §7

[4] = Stability of polymeric conjugates in murine or human plasma (camptothecin release); assay type: in vitro ADME
Procedure: Each sample was extracted by adding 100 μl of 0.25M phosphoric acid, 500 μl CH3 CN and 700 μl ethyl acetate and vigorously shaking for 20 minutes at 4° C. After that time, the sample was spun at 15000×g for 10 minutes and the supernatant was separated. To the residue was added 300 μl of CH3 CN and 500 μl was spun at 15000×g for 10 minutes. The supernatant was separated. The organic phases were pooled and evaporated using a high vacuum centrifuge. The sample was recovered by adding 500 μl of MeOH/water pH2 (70/30 by volume) and injected into HPLC apparatus for determining the total drug percentage content.

[5] = Water solubility; assay type: physicochemical; settings: dissolved in saline
[6] = Toxicity (LD10, LD50) in healthy mice; assay type: in vivo, C57Bl/F mice; settings: mouse, in vivo, iv, healthy C57B1/F mice; read-out: LD50 (dose inducing 50% of death mice)
[7] = tested on: healthy C57Bl/F mice; experiment: Toxicity (LD10, LD50) in healthy mice; assay type: in vivo; settings: i.v., healthy C57B1/F mice
[8] = background statement; cited from earlier work

Copolymer of N-(2-hydroxypropyl)methacrylamide, 20-O-[N-methacryloylglycyl -L-phenylalanyl-L-leucylglycyl] camptothecin and N-(2-hydroxypropyl) methacryloylglycinamide [Compound A2]
% tumor inhib. [1]: 96% | TOX (number of toxic deaths/total number of mice) [1]: 0/18 | cured mice (tumor free mice 90 days after tumor implant) [1]: 3/18 | antitumor activity compared with camptothecin (in words) ([1]; all experiments (HT29, early and advanced M5076)): striking higher activity | T/C % (median increase in survival time) ([2]; iv 1,6,9): 171% | TOX (number of toxic deaths/total number of mice) ([2]; iv 1,6,9): 0/10 | % tumor inhib. ([2]; iv 1,6,9): 100% | T/C % (median increase in survival time) ([3]; 10.0 mg/kg (CPT equivalent)): 174% | TOX (number of toxic deaths/total number of mice) ([3]; 10.0 mg/kg (CPT equivalent)): 0/10 | % tumor inhibition ([3]; 10.0 mg/kg (CPT equivalent)): 80% | T/C % (median increase in survival time) ([3]; 15.0 mg/kg (CPT equivalent)): 183% | TOX (number of toxic deaths/total number of mice) ([3]; 15.0 mg/kg (CPT equivalent)): 0/10 | % tumor inhibition ([3]; 15.0 mg/kg (CPT equivalent)): 95% | camptothecin released after plasma incubation ([4]; after 60 hours): 100% | water solubility (in words) [5]: highly water soluble

CC[C@@]1(O)C(=O)OCc2c1cc1n(c2=O)Cc2cc3ccccc3nc2-1 [CPT, camptothecin]
% tumor inhib. [1]: 83% | TOX (number of toxic deaths/total number of mice) [1]: 0/10 | cured mice (tumor free mice 90 days after tumor implant) [1]: 0/10 | T/C % (median increase in survival time) ([2]; ip 1,6,9): 165% | TOX (number of toxic deaths/total number of mice) ([2]; ip 1,6,9): 0/10 | % tumor inhib. ([2]; ip 1,6,9): 100% | T/C % (median increase in survival time) ([3]; 7.5 mg/kg (CPT equivalent)): 173% | TOX (number of toxic deaths/total number of mice) ([3]; 7.5 mg/kg (CPT equivalent)): 0/10 | % tumor inhibition ([3]; 7.5 mg/kg (CPT equivalent)): 72% | LD50 [6]: 43.4 mg/kg | LD10 (dose inducing 10% of death mice) [7]: 16.9 mg/kg | solubility in vehicles suitable for parenteral administration (in words) [8]: practically insoluble

Copolymer of N-(2-hydroxypropyl)methacrylamide, 20-O-[N-methacryloylglycyl-(6-aminohexanoylyl]camptothecin and N-(2-hydroxy -propyl)methacryloylglycinamide [Al]
camptothecin released after plasma incubation ([4]; after 120 hours): 10%

Copolymer of N-(^2 -hydroxypropyl)methacrylamide) 9-amino-20-O-[N-methacryloylglycyl-L-phenylalanyl-L-leucylglycyl] campto-thecin and N-(2-hydroxypropyl)methacryloylalycinamide [Compound A3]
camptothecin released after plasma incubation ([4]; after 50 hours): 100%

— US5773522A, “Polymer-bound camptothecin derivatives” (priority 1993, dated 1998)
